In patent publication US8916541B2, “Synergistic combination of honokiol and modified citrus pectin in cancer therapy” (Better Health Publishing, Inc., priority 2011, dated 2014):

Experiments:
[1] = system: liver cancer BEL-7404 cell line cells; test: MTT cell viability assay
[2] = system: T-helper/inducer lymphocyte subset (CD3/CD4); test: FastImmune CD69 T-helper/inducer lymphocyte activation in whole blood cultures; type: cell-based, human; conditions: 10 ng/ml
Description: (§1) In vitro lymphocyte activation represents a standard approach for evaluating cell-mediated responses to a variety of stimuli including immunostimulatory botanical extracts. The FastImmune assay system monitors the expression of the early activation marker CD69 in whole blood after stimulation with extracts.
(§2) T-lymphocyte subsets can be identified and quantified by using fluorochrome-labeled antibody combinations such as CD4/CD69/CD3 and CD8/CD69/CD3. CD4 antigen is expressed on the T-helper/inducer lymphocyte subset (CD3/CD4). CD8 antigen is expressed on the human suppressor/cytotoxic T-lymphocyte subset (CD3/CD8). Once activated both CD4 and CD8 positive T cells express CD69.
(§3) Blood samples were collected from healthy volunteers and 250 μl blood sample were incubated in 48-well plates with increasing concentrations of compound along with appropriate positive controls (recommended by Becton Dickinson Biosciences, CA) for each subset. CD2/CD2R and Phorbol ester (PMA) were used as controls for T-lymphocyte activation studies. […] T2CA, a characterized polysaccharide complex evaluated in these assays was also used as a control. The blood cultures were incubated at 37° C. in a CO2 incubator for 24 h. […] The percentage of activated T-cell subsets, B-cells and NK-cells and the percentage increase over untreated control were calculated and plotted against compound concentrations.

[3] = system: suppressor/cytotoxic T-lymphocyte subset (CD3/CD8); test: FastImmune CD69 T-cytotoxic/suppressor lymphocyte activation in whole blood cultures; type: cell-based, human; conditions: 10 ng/ml
Description: as §1, §2, §3

[4] = increase over untreated control

Row | SMILES | cell growth inhibition ([1]; 10 μg/ml of HNK, 72 hour treatment, BEL-7404 cells) | inhibition ([1]; 5 mcg/ml of HNK alone, BEL-7404 cells, FIG. 1) | cytotoxicity on BEL-7404 cells (in words) ([1]; 72 hour treatment, single agents) | T-helper/inducer Lymphocyte Activation, Activation (%) ([2]; 24 h blood culture) | T-helper/inducer Lymphocyte Activation, % Increase [2, 4] | T-cytotoxic/suppressor Lymphocyte Activation, Activation (%) ([3]; 24 h blood culture) | T-cytotoxic/suppressor Lymphocyte Activation, % Increase [3, 4]
1 | C=CCc1ccc(O)c(-c2ccc(O)c(CC=C)c2)c1 [HNK, honokiol] | 68.7% | around 25% | cytotoxicity on BEL-7404 cells in a dose dependent manner | – | – | – | –
2 | CCCCCCCCCCCCCC(=O)O[C@@H]1[C@@H](C)[C@@]2(O)[C@@H](C=C(CO)C[C@]3(O)C(=O)C(C)=C[C@@H]23)[C@@H]2C(C)(C)[C@]12OC(C)=O [PMA, Phorbol ester] | – | – | – | 5.93% | 120.86% | 5.68% | 54.45%
